The target of assay [1] is BRD4 (BD1+BD2) bromodomain (Homo sapiens (Human), UniProt O60885). The experiment in a line: BRD4 binding inhibition (AlphaScreen, GST-BRD4 vs tetraacetylated histone H4 peptide). Put shortly:
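AlphaScreen read after 30 min dark incubation at room temperature with glutathione acceptor/streptavidin donor beads (10 μg/ml each). The beads were added to compound plus 100 nM biotin-H4 (K5,8,12,16-acetyl) peptide and 100 nM GST-BRD4 BD1+BD2 in pH 7.4 HEPES/Tween/BSA/DTT buffer.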

Assay [2] relates to acute myelogenous leukemia cells (MV-4-11 cells). The experiment in a line: Cytotoxicity to acute myelogenous leukemia cells (MV-4-11 cells), CCK-8. As to conditions: Homo sapiens, MV4-11, 72 h.
Setting [3] is: GST-BRD4 (BD1+BD2) / biotinylated acetyl-histone H4 (Lys5,8,12,16) peptide, read-out: IC50, BRD4 binding inhibition.
[4] abbreviates: GST-BRD4 (BD1+BD2) vs biotinylated acetyl-histone H4 peptide, AlphaScreen, read-out: BRD4 IC50.
Where [5] appears, read: read-out: MV-4-11 Cytotoxicity IC50.
Setting [6] is: read-out: IC50, cytotoxicity against acute myelogenous leukemia cells.

Where two headings read alike, the source gives them in different places. Where only a bound is given, the exact number is not on record here.

For `COc1ccc2c(c1)nc(NCCCCNC(=O)[C@H](O)C(C)C)c1nnc(C)n12` [Example 298, 2-(R)-hydroxy-N-[4-(7-methoxy-1-methyl-[1,2,4]triazolo[4,3-a]quinoxaline-4-ylamino)-butyl]-3-methyl-butyramide], the IC50 in assay [1] (setting [3]) is not above 10 nM; in assay [1] (setting [4]) it was 4 nM; in assay [2] (setting [5]), 270 nM.

With `COc1ccc2c(c1)nc(NCCCCNC(=O)[C@@H](O)C(C)C)c1nnc(C)n12` [Example 299, 2-(S)-hydroxy-N-[4-(7-methoxy-1-methyl-[1,2,4]triazolo[4,3-a]quinoxaline-4-ylamino)-butyl]-3-methyl-butyramide], the values for the IC50 in assay [1] (setting [3]), in assay [1] (setting [4]) and in assay [2] (setting [5]) were not above 10 nM, 7 nM and 375 nM, respectively.

Regarding `COc1ccc2c(c1)nc(NCCCCNC(=O)[C@H](OC)C(C)C)c1nnc(C)n12` [Example 300, 2-(R)-methoxy-N-[4-(7-methoxy-1-methyl-[1,2,4]triazolo[4,3-a]quinoxaline-4-ylamino)-butyl]-3-methyl-butyramide], the concentration for half-maximal inhibition (IC50) is not above 50 nM in assay [1] (setting [3]), 15 nM in assay [1] (setting [4]) and 310 nM in assay [2] (setting [5]).

For `COc1ccc2c(c1)nc(NCCCCNC(=O)[C@@H](Br)C(C)C)c1nnc(C)n12` [Example 302, 2-(S)-bromo-N-[4-(7-methoxy-1-methyl-[1,2,4]triazolo[4,3-a]quinoxaline-4-ylamino)-butyl]-3-methyl-butyramide], the IC50 was not above 10 nM in assay [1] (setting [3]), 8 nM in assay [1] (setting [4]), not above 200 nM in assay [2] (setting [6]) and 66 nM in assay [2] (setting [5]).

For the compound `COc1ccc2c(c1)nc(NCCCCNC(=O)Cc1cccs1)c1nnc(C)n12` [Example 307, N-[4-(7-methoxy-1-methyl-[1,2,4]triazolo[4,3-a]quinoxaline-4-ylamino)-butyl]-2-thiophene-2-yl-acetamide], the 50% inhibitory concentration (IC50) in assay [1] (setting [3]) was not above 50 nM; in assay [1] (setting [4]), 22 nM; in assay [2] (setting [6]) it was not above 200 nM; in assay [2] (setting [5]) it was 10 nM.

Take `COc1ccc2c(c1)nc(NCCCCNC(=O)Cc1ccco1)c1nnc(C)n12` [Example 308, 2-furan-2-yl-N-[4-(7-methoxy-1-methyl-[1,2,4]triazolo[4,3-a]quinoxaline-4-ylamino)-butyl]-acetamide]: the results for the half-maximal inhibitory concentration (IC50) in assay [1] (setting [4]), in assay [2] (setting [6]) and in assay [2] (setting [5]) were 58 nM, not above 200 nM and 20 nM, respectively.

Take `COc1ccc2c(c1)nc(NCCCCNC(=O)CCC1CCCC1)c1nnc(C)n12` [Example 309, 3-cyclopentyl-N-[4-(7-methoxy-1-methyl-[1,2,4]triazolo[4,3-a]quinoxaline-4-ylamino)-butyl]-propionamide]: the concentration for half-maximal inhibition (IC50) is not above 10 nM in assay [1] (setting [3]), not above 200 nM in assay [2] (setting [6]) and 110 nM in assay [2] (setting [5]).

For `COc1ccc2c(c1)nc(NCCCCNC(=O)C(NC(=O)OC(C)(C)C)C(C)C)c1nnc(C)n12` (centres unmarked) [Example 310, {1-[4-(7-methoxy-1-methyl-[1,2,4]triazolo[4,3-a]quinoxaline-4-ylamino)-butylcarbamoyl]-2-methyl-propyl}-carbamic acid-tert-butylester], the 50% inhibitory concentration (IC50) in assay [1] (setting [3]) was not above 50 nM; in assay [1] (setting [4]), 42 nM; in assay [2] (setting [6]), not above 200 nM; in assay [2] (setting [5]), 126 nM.

In the case of `COc1ccc2c(c1)nc(NCCCCNC(=O)C(N)C(C)C)c1nnc(C)n12` (centres unmarked) [Example 311, 2-amino-N-[4-(7-methoxy-1-methyl-[1,2,4]triazolo[4,3-a]quinoxaline-4-ylamino)-butyl]-3-methyl-butyramide], the half-inhibitory concentration (IC50) is not above 50 nM in assay [1] (setting [3]), 43 nM in assay [1] (setting [4]) and 208 nM in assay [2] (setting [5]).

Take `COc1ccc2c(c1)nc(NCCCCNC(=O)[C@@H](C(C)C)N(C)C)c1nnc(C)n12` [Example 312, 2-(R)-dimethylamino-N-[4-(7-methoxy-1-methyl-[1,2,4]triazolo[4,3-a]quinoxaline-4-ylamino)-butyl]-3-methyl-butyramide]: the results for the IC50 in assay [1] (setting [3]), in assay [1] (setting [4]) and in assay [2] (setting [5]) were not above 50 nM, 18 nM and 510 nM, respectively.

In the case of `COc1ccc2c(c1)nc(NCCCCNC(=O)[C@H](C(C)C)N(C)C)c1nnc(C)n12` [Example 313, 2-(S)-dimethylamino-N-[4-(7-methoxy-1-methyl-[1,2,4]triazolo[4,3-a]quinoxaline-4-ylamino)-butyl]-3-methyl-butyramide], the values for the half-inhibitory concentration (IC50) in assay [1] (setting [3]), in assay [1] (setting [4]) and in assay [2] (setting [5]) were not above 50 nM, 33 nM and 570 nM, respectively.

`COc1ccc2c(c1)nc(NCCCCNC(=O)[C@H](C(C)C)N1CCC(O)C1)c1nnc(C)n12` (stereo partly drawn) [Example 315, 2-(S)-(3-hydroxy-pyrrolidine-1-yl)-N-[4-(7-methoxy-1-methyl-[1,2,4]triazolo[4,3-a]quinoxaline-4-ylamino)-butyl]-3-methyl-butyramide]: the 50% inhibitory concentration (IC50) is not above 50 nM in assay [1] (setting [3]), 36 nM in assay [1] (setting [4]) and 550 nM in assay [2] (setting [5]).

As to `COc1ccc2c(c1)nc(NCCCCNC(=O)[C@H](C(C)C)N1CCC(O)CC1)c1nnc(C)n12` [Example 316, 2-(S)-(4-hydroxy-piperidine-1-yl)-N-[4-(7-methoxy-1-methyl-[1,2,4]triazolo[4,3-a]quinoxaline-4-ylamino)-butyl]-3-methyl-butyramide], the half-inhibitory concentration (IC50) is not above 50 nM in assay [1] (setting [3]), 41 nM in assay [1] (setting [4]) and 730 nM in assay [2] (setting [5]).

On to `COc1ccc2c(c1)nc(NCCCCNC(=O)[C@@H](NC(=O)OCC(C)C)C(C)C)c1nnc(C)n12` [Example 318, (S)-{1-[4-(7-methoxy-1-methyl-[1,2,4]triazolo[4,3-a]quinoxaline-4-ylamino)-butylcarbamoyl]-2-methyl-propyl}-carbamic acid isobutylester], for which the IC50 in assay [1] (setting [3]) was not above 10 nM; in assay [1] (setting [4]), 10 nM; in assay [2] (setting [6]), not above 200 nM; in assay [2] (setting [5]), 32 nM.

As to `CCCOC(=O)N[C@H](C(=O)NCCCCNc1nc2cc(OC)ccc2n2c(C)nnc12)C(C)C` [Example 319, (S)-{1-[4-(7-methoxy-1-methyl-[1,2,4]triazolo[4,3-a]quinoxaline-4-ylamino)-butylcarbamoyl]-2-methyl-propyl}-carbamic acid propylester], the IC50 in assay [1] (setting [3]) was not above 50 nM; in assay [1] (setting [4]), 11 nM; in assay [2] (setting [6]), not above 200 nM; in assay [2] (setting [5]), 114 nM.

With `COc1ccc2c(c1)nc(NCCCCNC(=O)[C@@H](NC(=O)OC(C)C)C(C)C)c1nnc(C)n12` [Example 320, (S)-{1-[4-(7-methoxy-1-methyl-[1,2,4]triazolo[4,3-a]quinoxaline-4-ylamino)-butylcarbamoyl]-2-methyl-propyl}-carbamic acid isopropylester], the figures for the IC50 in assay [1] (setting [3]), in assay [1] (setting [4]) and in assay [2] (setting [5]) were not above 10 nM, 4 nM and 670 nM, respectively.

Turning to `COc1ccc2c(c1)nc(NCCCCNC(=O)[C@@H](NC(=O)[C@@H](F)C(C)C)C(C)C)c1nnc(C)n12` [Example 321, (S)-2-(S)-fluoro-N-{1-[4-(7-methoxy-1-methyl-[1,2,4]triazolo[4,3-a]quinoxaline-4-ylamino)-butylcarbamoyl]-2-methyl-propyl}-3-methyl-butyramide], the IC50 is not above 50 nM in assay [1] (setting [3]), 12 nM in assay [1] (setting [4]) and 553 nM in assay [2] (setting [5]).

In the case of `COc1ccc2c(c1)nc(NCCCCNC(=O)[C@@H](NC(=O)CC(C)C)C(C)C)c1nnc(C)n12` [Example 322, (S)-N-[4-(7-methoxy-1-methyl-[1,2,4]triazolo[4,3-a]quinoxaline-4-ylamino)-butyl]-3-methyl-2-(3-methyl-butyrylamino)-butyramide], the IC50 in assay [1] (setting [3]) was not above 50 nM; in assay [1] (setting [4]), 14 nM; in assay [2] (setting [6]), not above 200 nM; in assay [2] (setting [5]) it was 157 nM.

For `COc1ccc2c(c1)nc(NCCCCNC(=O)[C@@H](NC(=O)C(C)(C)C)C(C)C)c1nnc(C)n12` [Example 323, (S)-2-(2,2-dimethyl-propionylamino)-N-[4-(7-methoxy-1-methyl-[1,2,4]triazolo[4,3-a]quinoxaline-4-ylamino)-butyl]-3-methyl-butyramide], the half-maximal inhibitory concentration (IC50) in assay [1] (setting [3]) is not above 50 nM; in assay [1] (setting [4]), 35 nM; in assay [2] (setting [6]), not above 200 nM; in assay [2] (setting [5]) it was 107 nM.

As for `COc1ccc2c(c1)nc(NCCCCNC(=O)[C@@H](NS(C)(=O)=O)C(C)C)c1nnc(C)n12` [Example 327, 2-(S)-methanesulfonylamino-N-[4-(7-methoxy-1-methyl-[1,2,4]triazolo[4,3-a]quinoxaline-4-ylamino)-butyl]-3-methyl-butyramide], the IC50 in assay [1] (setting [3]) is not above 50 nM; in assay [1] (setting [4]), 18 nM; in assay [2] (setting [6]) it was not above 200 nM; in assay [2] (setting [5]) it was 140 nM.

Consider `COc1ccc2c(c1)nc(NCCCCNC(=O)c1ccccc1F)c1nnc(C)n12` [Example 328, 2-fluoro-N-[4-(7-methoxy-1-methyl-[1,2,4]triazolo[4,3-a]quinoxaline-4-ylamino)-butyl]-benzramide], for which the half-maximal inhibitory concentration (IC50) in assay [1] (setting [3]) was not above 50 nM; in assay [1] (setting [4]), 43 nM; in assay [2] (setting [6]), not above 200 nM; in assay [2] (setting [5]), 190 nM.

With `COc1ccc2c(c1)nc(NCCCCNC(=O)Cc1ccccc1)c1nnc(C)n12` [Example 329, N-[4-(7-methoxy-1-methyl-[1,2,4]triazolo[4,3-a]quinoxaline-4-ylamino)-butyl]-2-phenyl-acetamide], the concentration for half-maximal inhibition (IC50) in assay [1] (setting [3]) is not above 50 nM; in assay [1] (setting [4]) it was 35 nM; in assay [2] (setting [6]), not above 200 nM; in assay [2] (setting [5]), 19 nM.

As for `COc1ccc2c(c1)nc(NCCCCNC(=O)NC(C)C)c1nnc(C)n12` [Example 330, 1-isopropyl-3-[4-(7-methoxy-1-methyl-[1,2,4]triazolo[4,3-a]quinoxaline-4-ylamino)-butyl]-urea], the IC50 in assay [1] (setting [3]) is not above 50 nM; in assay [1] (setting [4]), 29 nM; in assay [2] (setting [6]) it was not above 200 nM; in assay [2] (setting [5]), 140 nM.

Source of the values: patent publication US11028090B2 (Dong Wha Pharm. Co., Ltd., priority 2017, dated 2021).
